Measured values as given in patent US11066419B2, “1H-pyrrole-2,5-dione compounds and methods of using same” (Frequency Therapeutics, Inc., priority 2016, dated 2021).

How the values were obtained:
[1] = target: recombinant human GSK3α (Homo sapiens, UniProt P49840); test: In vitro enzymatic assay for inhibition of GSK3α (Kinase-Glo Max luminescence); type: biochemical; details: 10 uM ATP, 0.1 mg/ml GSKtide, 30° C. 40 minutes, read-out: Potency Alpha
Procedure: (§1) Enzymatic activities using recombinant human GSK3 using an in vitro enzymatic assay for inhibition GSK3α and GSK3β.
(§2) The assay was performed using Kinase-Glo Max luminescence kinase assay kit (Promega). It measures kinase activity by quantitating the amount of ATP remaining in solution following a kinase reaction. The luminescent signal from the assay is correlated with the amount of ATP present and is inversely correlated with the amount of kinase activity. The compounds were diluted in 10% DMSO and 5 μl of the dilution was added to a 50 μl reaction so that the final concentration of DMSO is 1% in all of reactions. The enzymatic reactions were conducted at 30° C. for 40 minutes. The 50 μl reaction mixture contains 40 mM Tris, pH 7.4, 10 mM MgCl2, 0.1 mg/ml BSA, 2 mM DTT, 0.1 mg/ml GSKtide substrate, 10 uM ATP and GSK3. After the enzymatic reaction, 50 μl of Kinase-Glo Max Luminescence kinase assay solution (Promega) was added to each reaction and incubate the plate for 15 minutes at room temperature. Luminescence signal was measured using a BioTek Synergy 2 microplate reader.
(§3) Kinase activity assays were performed in duplicate at each concentration. The luminescence data were analyzed using the computer software, Graphpad Prism. The difference between luminescence intensities in the absence of Kinase (Lut) and in the presence of Kinase (Luc) was defined as 100% activity (Lut−Luc). Using luminescence signal (Lu) in the presence of the compound, % activity was calculated as: % activity={(Lut−Lu)/(Lut−Luc)}×100%, where Lu=the luminescence intensity in the presence of the compound (all percent activities below zero were shown zero in the table).
(§4) The values of % activity versus a series of compound concentrations were then plotted using non-linear regression analysis of Sigmoidal dose-response curve generated with the equation Y=B+(T−B)/1+10((Log EC50−X)×Hill Slope), where Y=percent activity, B=minimum percent activity, T=maximum percent activity, X=logarithm of compound and Hill Slope=slope factor or Hill coefficient. The IC50 value was determined by the concentration causing a half-maximal percent activity.

[2] = target: recombinant human GSK3β (Homo sapiens, UniProt P49841); test: In vitro enzymatic assay for inhibition of GSK3β (Kinase-Glo Max luminescence); type: biochemical; details: 10 uM ATP, 0.1 mg/ml GSKtide, 30° C. 40 minutes, read-out: Potency Beta
Procedure: as §1, §2, §3, §4

[3] = test system: Lgr5-positive cells; test: Expansion of Lgr5-positive cells (cochlear stem cell expansion, 3D Matrigel culture, flow cytometry for Lgr5-GFP); type: cell-based, mouse; details: for EC50: Mus musculus, 240 h, Lgr5-positive cell expansion, cochlear cells of neonatal Lgr5-EGFP-IRES-Cre-ER mice, 10 days in culture, read-out: Potency; for % of Cells: percentage of Lgr5-GFP-positive cells after 10 days (D10) in culture, flow cytometer
Procedure: Lgr5-EGFP-IRES-Cre-ER mice (Barker et al., 2007) (http://jaxmice.jax.org/strain/008875.html) are used to analyze the effects of small molecules on cochlear stem cell expansion.
Isolation of stem cells from the inner ear: All animal studies are conducted under an approved institutional protocol according to National Institutes of Health guidelines. For experiments with neonatal mice (postnatal days 1-3), the cochleae are dissected in HBSS and the organ of Corti are separated from the stria vascularis and the modiolus. The organs of Corti are then treated with Cell Recovery Solution (Corning) for 1 h to separate cochlear epithelium from the underlying mesenchyme. Epithelia are then collected and treated with TrypLE (Life Technologies) for 15-20 minutes at 37° C. Single cells obtained by mechanical trituration are filtered (40 μm) and suspended in Matrigel (Corning) for 3D culture.
Cells are cultured in a 1:1 mixture of DMEM and F12, supplemented with Glutamax (GIBCO), N2, B27 (Invitrogen), EGF (50 ng/ml; Chemicon), bFGF (50 ng/ml; Chemicon), IGF1 (50 ng/ml; Chemicon) and the composition provided herein. Media are changed every other day.
Lgr5-positive cells are quantified after 10 days (D10) in culture in multiple conditions. Cell colonies are dissociated into single cells using TrypLE (Gibco). The cells are then stained with propidium iodide (PI) and are analyzed using a flow cytometer for Lgr5-GFP expression. The number of GFP-positive cells and the percentage of GFP-positive cells are quantified.

recombinant human GSK3β, sequence (P49841 whole entry): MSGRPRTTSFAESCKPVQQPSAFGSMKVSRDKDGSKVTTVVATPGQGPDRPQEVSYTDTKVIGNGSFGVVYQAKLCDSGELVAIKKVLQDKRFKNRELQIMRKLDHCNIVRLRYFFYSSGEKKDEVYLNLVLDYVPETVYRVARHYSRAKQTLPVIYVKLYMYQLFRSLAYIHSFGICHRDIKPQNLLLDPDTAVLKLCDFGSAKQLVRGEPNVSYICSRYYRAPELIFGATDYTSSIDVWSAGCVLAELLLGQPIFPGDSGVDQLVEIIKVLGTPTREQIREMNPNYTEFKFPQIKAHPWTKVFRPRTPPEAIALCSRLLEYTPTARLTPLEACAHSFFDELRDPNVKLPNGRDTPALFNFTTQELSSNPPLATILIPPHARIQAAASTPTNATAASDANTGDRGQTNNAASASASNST
recombinant human GSK3α, sequence (P49840 whole entry): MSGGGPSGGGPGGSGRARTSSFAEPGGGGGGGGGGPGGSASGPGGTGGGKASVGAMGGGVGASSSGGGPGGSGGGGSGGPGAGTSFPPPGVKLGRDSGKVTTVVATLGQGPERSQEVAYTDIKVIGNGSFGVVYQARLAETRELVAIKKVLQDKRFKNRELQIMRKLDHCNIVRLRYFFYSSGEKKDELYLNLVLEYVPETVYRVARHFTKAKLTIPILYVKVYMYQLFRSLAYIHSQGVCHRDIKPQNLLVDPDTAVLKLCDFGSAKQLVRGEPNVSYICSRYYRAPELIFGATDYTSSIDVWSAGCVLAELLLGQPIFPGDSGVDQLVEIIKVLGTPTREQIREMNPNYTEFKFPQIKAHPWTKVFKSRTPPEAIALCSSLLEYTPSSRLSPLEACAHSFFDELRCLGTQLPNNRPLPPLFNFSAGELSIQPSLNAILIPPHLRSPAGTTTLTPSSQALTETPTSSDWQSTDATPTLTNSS

SMILES | IC50 [1] [nM] | IC50 [2] [nM] | EC50 [3] [nM] | % of Cells [3]
O=C1NC(=O)C(c2cnc3ccccn23)=C1c1cn2c3c(cc(F)cc13)CN(C(=O)N1CCC(C(O)C(F)(F)F)CC1)CC2 (stereo not drawn) [Compound I-31] | 1 to 10 | 1 to 10 | 1 to 100 | +++ (“+++” indicates greater than about 11%)
CNCC1CCN(C(=O)N2CCn3cc(C4=C(c5cnc6ccccn56)C(=O)NC4=O)c4cc(F)cc(c43)C2)CC1 [Compound I-32] | 1 to 10 | 1 to 10 | > 1000 | +++ (“+++” indicates greater than about 11%)
CN(C)CC1CCN(C(=O)N2CCn3cc(C4=C(c5cnc6ccccn56)C(=O)NC4=O)c4cc(F)cc(c43)C2)CC1 [Compound I-33] | 1 to 10 | 1 to 10 | 100 to 1000 | +++ (“+++” indicates greater than about 11%)
NC1CCN(C(=O)N2CCn3cc(C4=C(c5cnc6ccccn56)C(=O)NC4=O)c4cc(F)cc(c43)C2)CC1 [Compound I-34] | 1 to 10 | 1 to 10 | > 1000 | ++ (“++” indicates about 6-10%)
CNC1CCN(C(=O)N2CCn3cc(C4=C(c5cnc6ccccn56)C(=O)NC4=O)c4cc(F)cc(c43)C2)CC1 [Compound I-35] | 1 to 10 | 1 to 10 | > 1000 | + (“+” indicates about 0-5%)
O=C1NC(=O)C(c2cnc3ccccn23)=C1c1cn2c3c(cc(F)cc13)CN(C(=O)NCC1CCNCC1)CC2 [Compound I-37] | 1 to 10 | 1 to 10 | > 1000 | + (“+” indicates about 0-5%)
CN(CC1CCNCC1)C(=O)N1CCn2cc(C3=C(c4cnc5ccccn45)C(=O)NC3=O)c3cc(F)cc(c32)C1 [Compound I-38] | 1 to 10 | 1 to 10 | > 1000 | + (“+” indicates about 0-5%)
CN1CC2CC1CN2C(=O)N1CCn2cc(C3=C(c4cnc5ccccn45)C(=O)NC3=O)c3cc(F)cc(c32)C1 (stereo not drawn) [Compound I-40] | 1 to 10 | 1 to 10 | > 1000 | + (“+” indicates about 0-5%)
CN1CCC2(CCN(C(=O)N3CCn4cc(C5=C(c6cnc7ccccn67)C(=O)NC5=O)c5cc(F)cc(c54)C3)CC2)C1 [Compound I-41] | 1 to 10 | 1 to 10 | > 1000 | +++ (“+++” indicates greater than about 11%)
O=C1NC(=O)C(c2cnc3ccccn23)=C1c1cn2c3c(cc(C(F)(F)F)cc13)CN(C(=O)N1CC(F)(F)OC(F)(F)C1)CC2 [Compound I-43] | 1 to 10 | 1 to 10 | 100 to 1000 | +++ (“+++” indicates greater than about 11%)
O=C1NC(=O)C(c2cnc3ccccn23)=C1c1cn2c3c(cc(C(F)(F)F)cc13)CN(C(=O)N1CCOCC(F)(F)C1)CC2 [Compound I-44] | 1 to 10 | 1 to 10 | 100 to 1000 | +++ (“+++” indicates greater than about 11%)
O=C1NC(=O)C(c2cnc3ccccn23)=C1c1cn2c3c(cc(F)c(F)c13)CN(C(=O)N1CCCCC1)CC2 [Compound I-48] | 1 to 10 | 1 to 10 | 1 to 100 | ++ (“++” indicates about 6-10%)
